Legend:
Rat-1 fibroblasts cells = assay: sulphorhodamine B (SRB) cell viability / proliferation assay; assay type: cell-based
Description: To then test the effects of syringolin A on proliferation, cells at 0.25-0.5×10^5 cells per ml were seeded in 96-well microtiter plates containing 100 μl of culture medium per well. After 24 hours, syringolin A was added to wells to a final concentration of 0.5 μm to 100 μm. Syringolin was not added to parallel samples of control cells. Cells were incubated for 48 hours, photographed, and the viability of cells (calculated as a percentage of control cell counts) was determined using the sulphorhodamine B (SRB) assay as previously reported (Skehan, et al. 1990. J. Natl. Cancer Inst. 82:1107-1112, which is incorporated herein by reference in its entirety). In brief, cell culture medium was removed from the microtiter plate and adherent cells were fixed with 10% (w/v) trichloracetic acid (TCA) for 30 minutes at room temperature. Following four washes with tap water, 100 μl of SRB (Sigma Chemical Co., St. Louis, Mo.) (0.4 g/100 ml 1% [v/v] glacial acetic acid in water) was added and the plate was then incubated for 30 minutes at room temperature, and rinsed four times with 3% (v/v) glacial acetic acid. […] The absorption at a wavelength of 560 nm was read using an HTS 7000 Plus Bioassay Reader or a Victor 3, 1420 Multilabel Counter (PerkinElmer, Inc. Boston, Mass.). […]

SK-N-SH cells = assay: as above; assay type: cell-based, human; details: 48 hours
Excerpt: (§1) The mammalian cell lines used to test the effects of syringolin A were human neuroblastoma (NB) cells with either wild type p53 (line SK-N-SH, provided by the American Type Culture Collection [ATCC], Manassas, Va.; Davidoff, et al. 1992. Oncogene 7:127-133; McKenzie, et al. 1999. Clin. Cancer Res. 5:4199-4207; Tweddle, et al. 2001. Am. J. Pathol. 158:2067-2077), mutant p53 (line LAN-1, cysteine to stop codon at residue 182, provided by Dr. Robert Seeger, University of California, Los Angeles, Calif.; Davidoff, et al. 1992. Oncogene 7:127-133; Tweddle, et al. 2001. Cancer Res. 61:8-13; Tweddle, et al. 2003. Cancer Lett. 197:93-98), or human ovarian cancer cells (line SKOV3, provided by Dr. Bonnie Warn-Cramer, Cancer Research Center of Hawaii). NB cells were maintained in RPMI 1640 (Biosource, Rockville, Md.) containing 10% (v/v) heat-inactivated fetal bovine serum (FBS) (Invitrogen, Carlsbad, Calif.), penicillin (100 IU/ml), and streptomycin (100 μg/ml) as previously described (Wallick, et al. 2005. Oncogene 24:5606-5618). SKOV3 cells were maintained in McCoy's 5A with L-glutamine (Mediatech Inc., Herndon, Va.) and containing 10% (v/v) heat-inactivated fetal bovine serum […] (Invitrogen, Carlsbad, Calif.) and gentamicin ([…]). Cells were seeded 18-24 hours before GlbA or SylA treatment and analyzed after 24 and/or 48 hours. Cell numbers were determined using a haemacytometer in the presence of trypan blue (Fisher Scientific, Pittsburgh, Pa.).
(§2) To then test the effects of syringolin A on proliferation, cells at 0.25-0.5×10^5 cells per ml were seeded in 96-well microtiter plates containing 100 μl of culture medium per well. After 24 hours, syringolin A was added to wells to a final concentration of 0.5 μm to 100 μm. Syringolin was not added to parallel samples of control cells. Cells were incubated for 48 hours, photographed, and the viability of cells (calculated as a percentage of control cell counts) was determined using the sulphorhodamine B (SRB) assay as previously reported (Skehan, et al. 1990. J. Natl. Cancer Inst. 82:1107-1112, which is incorporated herein by reference in its entirety). In brief, cell culture medium was removed from the microtiter plate and adherent cells were fixed with 10% (w/v) trichloracetic acid (TCA) for 30 minutes at room temperature. Following four washes with tap water, 100 μl of SRB (Sigma Chemical Co., St. Louis, Mo.) (0.4 g/100 ml 1% [v/v] glacial acetic acid in water) was added and the plate was then incubated for 30 minutes at room temperature, and rinsed four times with 3% (v/v) glacial acetic acid. After addition of 200 μl of 10 mM […] (not pH adjusted) to each well, the plate was incubated on an orbital shaker for 30 minutes until the SRB was uniformly dissolved. The absorption at a wavelength of 560 nm was read using an HTS 7000 Plus Bioassay Reader or a Victor 3, 1420 Multilabel Counter (PerkinElmer, Inc. Boston, Mass.). To record cell morphology with and without syringolin treatment, photomicrographs were taken of cells in 12-well plates or 96-well plates, in the presence or absence of 25 μM syringolin A, using a Nikon Diaphot inverted microscope (Nikon Corp., Tokyo, Japan) and a Carl Zeiss Axiovert 200M inverted microscope (Carl Zeiss, Goettingen, Germany), both equipped with a digital camera and computer software for image processing. Power of magnification for SK-N-SH, LAN-1, and SKOV3 cells was 20×, and for Rat-1 cells was 10×.

LAN-1 cells = assay: as above; assay type: cell-based, human
Excerpt: as §1, §2

[1] = tested on: NB and ovarian cancer cells; details: Coleman et al. 2006, cited from earlier work
[2] = tested on: poly (ADP-ribose) polymerase (PARP); assay: Western blot of PARP cleavage in SKOV3 cells; assay type: cell-based, human; details: SKOV3, 20 μM, 24 and 48 hours
Description: The induction of an apoptotic response in cancer cells by the addition of syringolin A was verified by monitoring the cleavage of poly (ADP-ribose) polymerase (PARP), a common response during apoptosis. SK-N-SH cells were cultured in the presence or absence of 20 μM syringolin A for 0, 24 and 48 hours, and cell lysates were then generated as described in Example 4 and probed for the presence of PARP by Western blotting using rabbit polyclonal anti-PARP (#9542) (diluted 1:1000) and the HRP-linked anti-rabbit secondary antibody described in Example 4. The results were representative of four independent experiments. […] The treatment of cells for 48 hours further increased the levels of cleaved PARP, whereas noncleaved PARP disappeared. In a similar manner, syringolin A induced PARP cleavage in SKOV3 cells, but noncleaved PARP was still detected 48 hours after treatment (FIG. 5B).

[3] = tested on: microtubule-associated protein 1 light chain 3 (LC3); assay: immunoblot of LC3 conversion (autophagy) in SK-N-SH cells; assay type: cell-based, human
Description: To verify whether autophagy is induced in GlbA-treated cells, levels of microtubule-associated protein 1 light chain 3 (LC3), a reliable marker of autophagosomes, were measured. […] Therefore, this characteristic conversion of LC3 can be used to monitor autophagic activity. SK-N-SH cells were treated with GlbA in the presence or absence of 3-MA, and cell lysates were probed with LC3.

| SMILES | cell morphology (Rat-1 fibroblasts cells; Rat-1, 25 μM, no detachment or floating cells) | cell proliferation rate (Rat-1 fibroblasts cells; Rat-1, dose-dependent) | cell morphology (SK-N-SH cells; 25 μM) | cell viability (SK-N-SH cells; 0.5 to 100 μm, dose-dependent) | IC50 (SK-N-SH cells; Homo sapiens, SRB assay, read-out: IC50 (inhibitor concentration at which cell proliferation rate is reduced by 50% relative to control)) [µM] | IC50 (LAN-1 cells; Homo sapiens, LAN1, LAN-1, 48 hours, SRB assay, read-out: IC50 (inhibitor concentration at which cell proliferation rate is reduced by 50% relative to control)) [µM] | cell morphology (LAN-1 cells; LAN-1, 25 μM, 48 hours) | cell viability (LAN-1 cells; LAN-1, 0.5 to 100 μm, 48 hours, dose-dependent) | IC50 ([1]; read-out: IC-50 (concentration at which the cell proliferation rate is reduced to 50%)) [µM] | cell morphology ([1]; NB cells, 25 μM, 48 hours) | PARP cleavage [2] | GlbA-induced autophagy after pre-treatment with 3-MA ([3]; GlbA with 3-MA pre-treatment) | LC3-II amount / conversion of LC3 ([3]; compared to untreated control cells) |
| --- | --- | --- | --- | --- | --- | --- | --- | --- | --- | --- | --- | --- | --- |
| CC(C)[C@H](NC(=O)N[C@H](C(=O)N[C@H]1/C=C/CCNC(=O)/C=C/[C@H](C(C)C)NC1=O)C(C)C)C(=O)O [syringolin A] | affected the cell morphology | reduced the cell proliferation rate | induced significant morphological changes | reduced the cell viability | 20 to 25 | 20 to 25 | induced significant morphological changes | reduced the cell viability | ~25 | severe morphological changes | induces apoptosis-associated PARP cleavage | – | – |
| CCCCCCC/C=C/C=C/C(=O)N[C@H](C(=O)N[C@H]1C[C@@H](O)CCNC(=O)/C=C/[C@H](C)NC1=O)[C@@H](C)O [glidobactin A] | – | – | – | – | – | – | – | – | – | – | – | reverted GlbA-induced autophagy | larger amounts of LC3-II |
